Legend:
Experiment in all cases: relative viability (nuclei count vs DMSO), 5 days (fraction); higher = more cells survive
[1] = compound: CC(C)(C)c1nc(-c2cccc(NS(=O)(=O)c3c(F)cccc3F)c2F)c(-c2ccnc(N)n2)s1 [Dabrafenib] + CC(=O)Nc1cccc(-n2c(=O)n(C3CC3)c(=O)c3c(Nc4ccc(I)cc4F)n(C)c(=O)c(C)c32)c1 [Trametinib] (partner 0.02 µM)
Outline: (§1)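 A single step with final 0.05% Triton X-100, 1% formaldehyde and 1 ug/ml Hoechst fixed the cells and stained nuclei 5 days after treatment. Lung cancer cell lines in 1536-well plates had been treated by pin tool the day after seeding with one drug alone or a fixed anchor-drug dose plus five library-drug doses (not always all listed) in √10 steps, and nuclei were counted on 4× images. Relative viability is the ratio of nuclei in treated wells to nuclei in vehicle wells, taken as the median of duplicate plates.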

[2] = compound: CC(C)(C)c1nc(-c2cccc(NS(=O)(=O)c3c(F)cccc3F)c2F)c(-c2ccnc(N)n2)s1 [Dabrafenib] + CS(=O)(=O)N1CCN(Cc2cc3nc(-c4cccc5[nH]ncc45)nc(N4CCOCC4)c3s2)CC1 [Pictilisib] (partner 1 µM)
Outline: as §1

[3] = compound: CC(C)(C)c1nc(-c2cccc(NS(=O)(=O)c3c(F)cccc3F)c2F)c(-c2ccnc(N)n2)s1 [Dabrafenib] + NC(=O)Nc1cc(-c2cccc(F)c2)sc1C(=O)N[C@H]1CCCNC1 [AZD7762] (partner 0.2 µM)
Outline: as §1

[4] = compound: NC(=O)c1ccc(N(C(N)=O)c2c(F)cccc2F)nc1-c1ccc(F)cc1F [VX-702] + N=C(N)NC(=N)NCCc1ccccc1 [Phenformin] (partner 250 µM)
Outline: as §1

Cell Line: NCI-H322M
- relative viability ([1]; first compound 0.009487 µM): 0.492
- relative viability ([1]; first compound 0.09487 µM): 0.53
- relative viability ([1]; first compound 0.3 µM): 0.532
- relative viability ([2]; first compound 0.009487 µM): 0.539
- relative viability ([2]; first compound 0.09487 µM): 0.542
- relative viability ([2]; first compound 0.3 µM): 0.489
- relative viability ([3]; first compound 0.009487 µM): 0.613
- relative viability ([3]; first compound 0.09487 µM): 0.619
- relative viability ([3]; first compound 0.3 µM): 0.612
- relative viability ([4]; first compound 0.02 µM): 0.744
- relative viability ([4]; first compound 0.2 µM): 0.757
- relative viability ([4]; first compound 0.6325 µM): 0.742
- relative viability ([4]; first compound 2 µM): 0.915

Cell Line: HCC-366
- relative viability ([1]; first compound 0.003 µM): 0.324
- relative viability ([1]; first compound 0.009487 µM): 0.348
- relative viability ([1]; first compound 0.03 µM): 0.225
- relative viability ([1]; first compound 0.09487 µM): 0.374
- relative viability ([1]; first compound 0.3 µM): 0.396
- relative viability ([2]; first compound 0.003 µM): 0.161
- relative viability ([2]; first compound 0.009487 µM): 0.183
- relative viability ([2]; first compound 0.03 µM): 0.0973
- relative viability ([2]; first compound 0.09487 µM): 0.169
- relative viability ([2]; first compound 0.3 µM): 0.118
- relative viability ([3]; first compound 0.003 µM): 0.0302
- relative viability ([3]; first compound 0.009487 µM): 0.288
- relative viability ([3]; first compound 0.03 µM): 0.29
- relative viability ([3]; first compound 0.09487 µM): 0.309
- relative viability ([3]; first compound 0.3 µM): 0.16
- relative viability ([4]; first compound 0.02 µM): 0.594
- relative viability ([4]; first compound 0.2 µM): 0.62
- relative viability ([4]; first compound 0.6325 µM): 0.679
- relative viability ([4]; first compound 2 µM): 0.5

Cell Line: NCI-H1355
- relative viability ([1]; first compound 0.009487 µM): 0.509
- relative viability ([1]; first compound 0.03 µM): 0.456
- relative viability ([1]; first compound 0.09487 µM): 0.471
- relative viability ([1]; first compound 0.3 µM): 0.535
- relative viability ([2]; first compound 0.009487 µM): 0.493
- relative viability ([2]; first compound 0.03 µM): 0.328
- relative viability ([2]; first compound 0.3 µM): 0.362
- relative viability ([3]; first compound 0.009487 µM): 0.814
- relative viability ([3]; first compound 0.03 µM): 0.669
- relative viability ([3]; first compound 0.09487 µM): 0.655
- relative viability ([3]; first compound 0.3 µM): 0.803
- relative viability ([4]; first compound 0.02 µM): 0.53
- relative viability ([4]; first compound 0.2 µM): 0.445
- relative viability ([4]; first compound 0.6325 µM): 0.482
- relative viability ([4]; first compound 2 µM): 0.494

Cell Line: LC-2-ad
- relative viability ([1]; first compound 0.003 µM): 0.891
- relative viability ([1]; first compound 0.009487 µM): 0.931
- relative viability ([1]; first compound 0.03 µM): 0.901
- relative viability ([1]; first compound 0.09487 µM): 0.862
- relative viability ([1]; first compound 0.3 µM): 0.992
- relative viability ([2]; first compound 0.003 µM): 0.489
- relative viability ([2]; first compound 0.009487 µM): 0.137
- relative viability ([2]; first compound 0.03 µM): 0.408
- relative viability ([2]; first compound 0.09487 µM): 0.455
- relative viability ([2]; first compound 0.3 µM): 0.497
- relative viability ([3]; first compound 0.003 µM): 0.654
- relative viability ([3]; first compound 0.009487 µM): 0.945
- relative viability ([3]; first compound 0.03 µM): 0.87
- relative viability ([3]; first compound 0.09487 µM): 0.92
- relative viability ([3]; first compound 0.3 µM): 1.07
- relative viability ([4]; first compound 0.02 µM): 0.574
- relative viability ([4]; first compound 0.2 µM): 0.647
- relative viability ([4]; first compound 0.6325 µM): 0.551
- relative viability ([4]; first compound 2 µM): 0.612

Cell Line: NCI-H2087
- relative viability ([1]; first compound 0.009487 µM): 0.18
- relative viability ([1]; first compound 0.03 µM): 0.234
- relative viability ([1]; first compound 0.09487 µM): 0.209
- relative viability ([1]; first compound 0.3 µM): 0.181
- relative viability ([2]; first compound 0.003 µM): 0.38
- relative viability ([2]; first compound 0.009487 µM): 0.819
- relative viability ([2]; first compound 0.03 µM): 1.08
- relative viability ([2]; first compound 0.09487 µM): 0.728
- relative viability ([2]; first compound 0.3 µM): 0.703
- relative viability ([3]; first compound 0.009487 µM): 1.24
- relative viability ([3]; first compound 0.03 µM): 1.11
- relative viability ([3]; first compound 0.09487 µM): 0.928
- relative viability ([3]; first compound 0.3 µM): 1
- relative viability ([4]; first compound 0.02 µM): 0.481
- relative viability ([4]; first compound 0.2 µM): 0.445
- relative viability ([4]; first compound 0.6325 µM): 0.422
- relative viability ([4]; first compound 2 µM): 0.528

Cell Line: BEN
- relative viability ([1]; first compound 0.009487 µM): 1.07
- relative viability ([1]; first compound 0.09487 µM): 0.842
- relative viability ([1]; first compound 0.3 µM): 1.11
- relative viability ([2]; first compound 0.009487 µM): 0.58
- relative viability ([2]; first compound 0.09487 µM): 0.52
- relative viability ([2]; first compound 0.3 µM): 0.687
- relative viability ([3]; first compound 0.009487 µM): 0.769
- relative viability ([3]; first compound 0.09487 µM): 0.81
- relative viability ([3]; first compound 0.3 µM): 0.852
- relative viability ([4]; first compound 0.02 µM): 0.263
- relative viability ([4]; first compound 0.2 µM): 0.252
- relative viability ([4]; first compound 0.6325 µM): 0.228
- relative viability ([4]; first compound 2 µM): 0.236

Cell Line: NCI-H2228
- relative viability ([1]; first compound 0.003 µM): 0.269
- relative viability ([1]; first compound 0.009487 µM): 0.45
- relative viability ([1]; first compound 0.03 µM): 0.497
- relative viability ([1]; first compound 0.09487 µM): 0.597
- relative viability ([1]; first compound 0.3 µM): 0.658
- relative viability ([2]; first compound 0.003 µM): 0.331
- relative viability ([2]; first compound 0.009487 µM): 0.386
- relative viability ([2]; first compound 0.03 µM): 0.415
- relative viability ([2]; first compound 0.09487 µM): 0.316
- relative viability ([2]; first compound 0.3 µM): 0.483
- relative viability ([4]; first compound 0.02 µM): 0.48
- relative viability ([4]; first compound 0.2 µM): 0.354
- relative viability ([4]; first compound 0.6325 µM): 0.324
- relative viability ([4]; first compound 2 µM): 0.34

Cell Line: HCC-827
- relative viability ([1]; first compound 0.003 µM): 0.511
- relative viability ([1]; first compound 0.009487 µM): 0.53
- relative viability ([1]; first compound 0.03 µM): 0.522
- relative viability ([1]; first compound 0.3 µM): 0.616
- relative viability ([2]; first compound 0.003 µM): 1.07
- relative viability ([2]; first compound 0.009487 µM): 1.13
- relative viability ([2]; first compound 0.03 µM): 0.89
- relative viability ([2]; first compound 0.3 µM): 1.03
- relative viability ([3]; first compound 0.003 µM): 0.129
- relative viability ([3]; first compound 0.009487 µM): 0.234
- relative viability ([3]; first compound 0.03 µM): 0.216
- relative viability ([3]; first compound 0.3 µM): 0.276
- relative viability ([4]; first compound 0.02 µM): 0.417
- relative viability ([4]; first compound 0.2 µM): 0.457
- relative viability ([4]; first compound 0.6325 µM): 0.423
- relative viability ([4]; first compound 2 µM): 0.188
